Test results reported in US20240067631A1, “PYRAZOLE DERIVATIVES USEFUL AS NAMPT MODULATORS” (Cytokinetics, Inc., priority 2020, published 2024).

Target: human NAMPT (Homo sapiens (Human), UniProt P43490)
Assay: Human recombinant enzyme assay (NMN fluorescence biochemical assay)
Settings: 6 nM human NAMPT, 60 min; for AC1.4 Human: concentration of compound that generates 40% higher activity over basal; for EC50: concentration that gives half-maximal activation
Experimental: Compounds described herein were assayed for their ability to stimulate the synthesis of nicotinamide mononucleotide (NMN) by the enzyme NAMPT. The human recombinant enzyme assay measures the activation of the enzyme activity by compounds using recombinant enzyme and substrates in a buffered cell-free system. The assay conditions closely mimic cellular environments. Dose responses were measured using an assay to detect the formation of nicotinamide mono-nucleotide. All experiments were performed in the 384-well format. Generally, 0.5 μL of DMSO containing varying concentrations of the test compound was mixed with 10 μL of the enzyme reagent solution. Enzyme reactions were initiated with the addition of 10 μL of a solution containing the substrates. The final assay conditions were as follows: 6 nM human NAMPT, 2.5 mM ATP, […] in 50 mM HEPES, pH 7.2, 1 mM DTT, 1 mM CHAPS 50 mM NaCl, 100 mM MgCl2. Following an incubation of 60 min at ambient temperature, 10 μL of 20% acetophenone in DMSO was added, followed by 10 μL of 2 M KOH and 40 μL of formic acid. The plates were read for fluorescence (Excitation/Emission=355 nm/460 nm) using an EnVision plate reader after 40 mins of incubation at ambient temperature. The potency measurements for compounds, are quantified and represented as AC1.4 (the concentration of compounds that generates 40% higher activity over basal) and EC50 (concentration of the compound that gives half-maximal activation).

human NAMPT, sequence (P43490 whole entry): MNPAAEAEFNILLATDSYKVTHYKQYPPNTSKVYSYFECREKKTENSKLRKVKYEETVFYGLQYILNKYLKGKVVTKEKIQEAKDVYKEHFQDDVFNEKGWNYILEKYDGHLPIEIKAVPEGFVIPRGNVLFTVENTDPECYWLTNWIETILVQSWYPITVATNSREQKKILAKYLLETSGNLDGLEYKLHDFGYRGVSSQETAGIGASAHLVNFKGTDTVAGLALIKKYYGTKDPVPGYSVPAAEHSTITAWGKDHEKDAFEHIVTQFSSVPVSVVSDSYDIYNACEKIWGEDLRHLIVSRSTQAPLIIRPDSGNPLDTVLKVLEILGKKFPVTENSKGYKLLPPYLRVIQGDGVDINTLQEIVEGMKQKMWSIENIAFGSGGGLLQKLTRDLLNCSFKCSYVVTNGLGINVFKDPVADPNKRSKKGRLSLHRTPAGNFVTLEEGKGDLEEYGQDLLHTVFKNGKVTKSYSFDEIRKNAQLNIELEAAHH

SMILES | AC1.4 Human [µM] | EC50 [µM]
Cc1nc(C(=O)N2CC(C)(O)C2)nc(NCCc2cn[nH]c2)c1C [Compound 125, (4-((2-(1H-pyrazol-4-yl)ethyl)amino)-5,6-dimethylpyrimidin-2-yl)(3-hydroxy-3-methylazetidin-1-yl)methanone] | 4.313 | 22
Cc1nc(C(=O)N2CCN(C)CC2c2ccccc2)nc(NCCc2cn[nH]c2)c1C (centres unmarked) [Compound 44, (4-((2-(1H-pyrazol-4-yl)ethyl)amino)-5,6-dimethylpyrimidin-2-yl)(4-methyl-2-phenylpiperazin-1-yl)methanone] | 0.275 | 1.84
Cc1nc(C(=O)NCc2cccs2)nc(NCCc2cn[nH]c2)c1C [Compound 19, 4-((2-(1H-pyrazol-4-yl)ethyl)amino)-5,6-dimethyl-N-(thiophen-2-ylmethyl)pyrimidine-2-carboxamide] | 0.075 | 0.499
Cc1nc(C(=O)N2CC(c3ccccc3)C2)nc(NCCc2cn[nH]c2)c1C [Compound 76, (4-((2-(1H-pyrazol-4-yl)ethyl)amino)-5,6-dimethylpyrimidin-2-yl)(3-phenylazetidin-1-yl)methanone] | 0.773 | 6.83
Cc1nc(C(=O)N2CC(O)(Cc3ccccc3)C2)nc(NCCc2cn[nH]c2)c1C [Compound 60] | 0.4085 | 3.75
Cc1nc(C(=O)N2CC(O)(c3ccccc3)C2)nc(N2CC[C@@H](c3cn[nH]c3)C2)c1C (single isomer, unassigned) [Compound 9] | 0.044 | 0.633
Cc1cccc([C@@H](C)NC(=O)c2nc(C)c(C)c(NCCc3cn[nH]c3)n2)n1 [Compound 78, (R)-4-((2-(1H-pyrazol-4-yl)ethyl)amino)-5,6-dimethyl-N-(1-(6-methylpyridin-2-yl)ethyl)pyrimidine-2-carboxamide] | 0.81 | 5.62
Cc1nc(C(=O)N2CC(O)(c3cccc(F)c3)C2)nc(NCCc2cn[nH]c2)c1C [Compound 3, (4-((2-(1H-pyrazol-4-yl)ethyl)amino)-5,6-dimethylpyrimidin-2-yl)(3-(3-fluorophenyl)-3-hydroxyazetidin-1-yl)methanone] | 0.0165 | 0.653
Cc1nc(C(=O)N[C@H](C)c2ccncc2)nc(NCCc2cn[nH]c2)c1C [Compound 95, (R)-4-((2-(1H-pyrazol-4-yl)ethyl)amino)-5,6-dimethyl-N-(1-(pyridin-4-yl)ethyl)pyrimidine-2-carboxamide] | 1.2975 | 11
Cc1nc(C(=O)N2CCC(O)(c3ccccc3)CC2)nc(NCCc2cn[nH]c2)c1C [Compound 34, (4-((2-(1H-pyrazol-4-yl)ethyl)amino)-5,6-dimethylpyrimidin-2-yl)(4-hydroxy-4-phenylpiperidin-1-yl)methanone] | 2.839 | 17.7
COC[C@@H](NC(=O)c1nc(C)c(C)c(NCCc2cn[nH]c2)n1)c1cccc(F)c1 [Compound 82, (S)-4-((2-(1H-pyrazol-4-yl)ethyl)amino)-N-(1-(3-fluorophenyl)-2-methoxyethyl)-5,6-dimethylpyrimidine-2-carboxamide] | 0.966 | 3.99
Cc1nc(C(=O)NC2(c3ccccc3)COC2)nc(NCCc2cn[nH]c2)c1C [Compound 114, 4-((2-(1H-pyrazol-4-yl)ethyl)amino)-5,6-dimethyl-N-(3-phenyloxetan-3-yl)pyrimidine-2-carboxamide] | 2.1125 | 23.1
Cc1nc(C(=O)N2CCC(c3ccccc3F)C2)nc(NCCc2cn[nH]c2)c1C (centres unmarked) [Compound 66, (4-((2-(1H-pyrazol-4-yl)ethyl)amino)-5,6-dimethylpyrimidin-2-yl)(3-(2-fluorophenyl)pyrrolidin-1-yl)methanone] | 4.5565 | 16.3
Cc1nc(C(=O)N2CCOCC2(C)c2ccccc2)nc(NCCc2cn[nH]c2)c1C (centres unmarked) [Compound 25, (4-((2-(1H-pyrazol-4-yl)ethyl)amino)-5,6-dimethylpyrimidin-2-yl)(3-methyl-3-phenylmorpholino)methanone] | 0.106 | 0.872
CNC(=O)c1nc(C)c(C)c(N(CCc2ccccc2)CCc2cn[nH]c2)n1 [Compound 2, 4-((2-(1H-pyrazol-4-yl)ethyl)(phenethyl)amino)-N,5,6-trimethylpyrimidine-2-carboxamide] | 0.007 | 0.155
Cc1nc(C(=O)N2CCC(c3c[nH]c4ccccc34)CC2)nc(NCCc2cn[nH]c2)c1C [Compound 6, (4-(1H-indol-3-yl)piperidin-1-yl)(4-((2-(1H-pyrazol-4-yl)ethyl)amino)-5,6-dimethylpyrimidin-2-yl)methanone] | 0.0385 | 1.84
COc1cccc(CNC(=O)c2nc(C)c(C)c(NCCc3cn[nH]c3)n2)n1 [Compound 88, 4-((2-(1H-pyrazol-4-yl)ethyl)amino)-N-((6-methoxypyridin-2-yl)methyl)-5,6-dimethylpyrimidine-2-carboxamide] | 1.1435 | 7.21
Cc1nc(C(=O)N2CC[C@@H](c3ccccc3)C2)nc(NCCc2cn[nH]c2)c1C [Compound 61, (S)-(4-((2-(1H-pyrazol-4-yl)ethyl)amino)-5,6-dimethylpyrimidin-2-yl)(3-phenylpyrrolidin-1-yl)methanone] | 0.409 | 2.11
Cc1nc(C(=O)NC(C)c2ccncc2F)nc(NCCc2cn[nH]c2)c1C (centres unmarked) [Compound 110, 4-((2-(1H-pyrazol-4-yl)ethyl)amino)-N-(1-(3-fluoropyridin-4-yl)ethyl)-5,6-dimethylpyrimidine-2-carboxamide] | 1.9815 | 16.2
Cc1nc(C(=O)NCC2(c3cccc(F)c3)COC2)nc(NCCc2cn[nH]c2)c1C [Compound 74, 4-((2-(1H-pyrazol-4-yl)ethyl)amino)-N-((3-(3-fluorophenyl)oxetan-3-yl)methyl)-5,6-dimethylpyrimidine-2-carboxamide] | 0.715 | 8.01
Cc1nc(C(=O)N[C@@H](C)c2ccccc2)nc(NCCc2cn[nH]c2)c1C [Compound 59, (S)-4-((2-(1H-pyrazol-4-yl)ethyl)amino)-5,6-dimethyl-N-(1-phenylethyl)pyrimidine-2-carboxamide] | 0.4045 | 3.08
Cc1nc(C(=O)Nc2ccccc2)nc(NCCc2cn[nH]c2)c1C [Compound 140, 4-((2-(1H-pyrazol-4-yl)ethyl)amino)-5,6-dimethyl-N-phenylpyrimidine-2-carboxamide] | 4.0885 | 18.4
Cc1nc(C(=O)N[C@H](C)C2CCCCC2)nc(NCCc2cn[nH]c2)c1C [Compound 116, (R)-4-((2-(1H-pyrazol-4-yl)ethyl)amino)-N-(1-cyclohexylethyl)-5,6-dimethylpyrimidine-2-carboxamide] | 2.9705 | 29.6
Cc1nc(C(=O)N2CCC2c2ccccc2)nc(NCCc2cn[nH]c2)c1C (centres unmarked) [Compound 132, (4-((2-(1H-pyrazol-4-yl)ethyl)amino)-5,6-dimethylpyrimidin-2-yl)(2-phenylazetidin-1-yl)methanone] | 3.5055 | 13.1
Cc1nc(C(=O)NC2CC(F)(F)c3ccccc32)nc(NCCc2cn[nH]c2)c1C (centres unmarked) [Compound 79, 4-((2-(1H-pyrazol-4-yl)ethyl)amino)-N-(3,3-difluoro-2,3-dihydro-1H-inden-1-yl)-5,6-dimethylpyrimidine-2-carboxmaide] | 0.8395 | 4.62
Cc1nc(C(=O)N2CCC[C@@H]2c2cccc(F)c2)nc(NCCc2cn[nH]c2)c1F [Compound 150, (R)-(4-((2-(1H-pyrazol-4-yl)ethyl)amino)-5-fluoro-6-methylpyrimidin-2-yl)(2-(3-fluorophenyl)pyrrolidin-1-yl)methanone] | 0.12 | 
Cc1nc(C(=O)NCc2ncccc2F)nc(NCCc2cn[nH]c2)c1C [Compound 120, 4-((2-(1H-pyrazol-4-yl)ethyl)amino)-N-((3-fluoropyridin-2-yl)methyl)-5,6-dimethylpyrimidine-2-carboxamide] | 2.443 | 15.2
Cc1nc(C(=O)N2CCOCC2c2cccc(Cl)c2)nc(NCCc2cn[nH]c2)c1C (centres unmarked) [Compound 12, (4-((2-(1H-pyrazol-4-yl)ethyl)amino)-5,6-dimethylpyrimidin-2-yl)(3-(3-chlorophenyl)morpholino)methanone] | 0.048 | 0.514
Cc1nc(C(=O)NC(c2ccccc2)C(F)(F)F)nc(NCCc2cn[nH]c2)c1C (centres unmarked) [Compound 33, 4-((2-(1H-pyrazol-4-yl)ethyl)amino)-5,6-dimethyl-N-(2,2,2-trifluoro-1-phenylethyl)pyrimidine-2-carboxamide] | 0.2615 | 1.38
Cc1nc(C(=O)N2CCOCC2C(F)(F)F)nc(NCCc2cn[nH]c2)c1C (centres unmarked) [Compound 138, (4-((2-(1H-pyrazol-4-y)ethyl)amino)-5,6-dimethylpyrimidin-2-yl)(3-(trifluoromethyl)morpholino)methanone] | 4.125 | 30.7
